In the test the target is purified human Factor XIa (Homo sapiens (Human), UniProt P03951). Description: Factor XIa Assay. To be noted: purified human Factor XIa 40 pM; substrate Z-Gly-Pro-Arg-AFC 100 μM; 50 mM HEPES pH 7.4; read-out: Human FXIa Ki. It is filed as biochemical. The method, then: The effectiveness of a compound of the present invention as an inhibitor of Coagulation Factor XIa can be determined using a relevant purified serine protease, and an appropriate synthetic substrate. The rate of hydrolysis of the chromogenic or fluorogenic substrate by the relevant serine protease was measured both in the absence and presence of compounds of the present invention. Assays were conducted at rt or at 37° C. […] A decrease in the rate of fluorescence change in the presence of inhibitor is indicative of enzyme inhibition. Such methods are known to one skilled in the art. The results of this assay are expressed as the inhibitory constant, Ki.
Factor XIa determinations were made in 50 mM HEPES buffer at pH 7.4 containing 150 mM NaCl, 5 mM CaCl2, and 0.1% PEG 8000 (polyethylene glycol; JT Baker or Fisher Scientific). Determinations were made using purified human Factor XIa at a final concentration of 40 pM (Sekisui Diagnostics) and he synthetic substrate, Z-Gly-Pro-Arg-AFC, TFA salt (Sigma #C0980) at a concentration of 100 μM.
Times required to achieve equilibration between enzyme and inhibitor were determined in control experiments. Initial velocities of product formation in the absence (Vo) or presence of inhibitor (Vi) were measured. Assuming competitive inhibition, and that unity is negligible compared Km/[S], [I]/e, and [I]/e (where [S], [I], and e respectively represent the total concentrations, of substrate, inhibitor and enzyme), the equilibrium constant (Ki) for dissociation of the inhibitor from the enzyme can be obtained from the dependence of Vo/Vi on [I] shown in the following equation.

The values below come from patent publication US10214512B2, “Factor XIA inhibitors” (MERCK SHARP & DOHME CORP., priority 2015, dated 2019).

In general, Ki refers to a measure of affinity in units of concentration, obtained from inhibition or displacement.

Sequence of purified human Factor XIa (P03951 388-625): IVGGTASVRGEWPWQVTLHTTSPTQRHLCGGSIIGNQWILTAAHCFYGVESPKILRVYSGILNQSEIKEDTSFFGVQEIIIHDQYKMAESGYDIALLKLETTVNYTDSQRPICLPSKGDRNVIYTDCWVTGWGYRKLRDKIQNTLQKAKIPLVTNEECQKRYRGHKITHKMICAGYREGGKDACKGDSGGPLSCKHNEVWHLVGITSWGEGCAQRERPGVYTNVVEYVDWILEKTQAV
Sequence of purified human Factor XIa (P03951 19-387 partner): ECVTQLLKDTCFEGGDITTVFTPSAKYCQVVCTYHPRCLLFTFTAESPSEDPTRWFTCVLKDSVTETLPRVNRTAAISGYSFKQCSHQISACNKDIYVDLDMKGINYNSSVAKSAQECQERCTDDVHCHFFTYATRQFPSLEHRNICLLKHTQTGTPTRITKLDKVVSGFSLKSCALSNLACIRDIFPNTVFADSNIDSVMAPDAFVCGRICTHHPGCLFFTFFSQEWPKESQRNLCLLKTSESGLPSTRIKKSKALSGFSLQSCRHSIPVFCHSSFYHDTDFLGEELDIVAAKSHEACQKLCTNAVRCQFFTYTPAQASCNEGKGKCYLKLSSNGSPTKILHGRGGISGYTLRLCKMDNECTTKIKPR

On to `COC(=O)Nc1ccc2c(c1)NC(=O)C(C)CCCC(c1ccc(-c3c(F)ccc(Cl)c3F)c[n+]1[O-])c1ccc(F)c-2c1` (single isomer, unassigned) [Example 86-c, 5-(3-Chloro-2,6-difluorophenyl)-2-(1^6-fluoro-2^4-((methoxycarbonyl)amino)-5-methyl-4-oxo-3-aza-1(1,3),2(1,2) -dibenzenacyclononaphane-9-yl)pyridine 1-oxide], for which the Ki was 115 nM.

With `COC(=O)Nc1ccc2c(c1)NC(=O)C(C)CCCC(c1ccc(-c3c(F)ccc(Cl)c3F)c[n+]1[O-])c1ccc(F)c-2c1` (single isomer, unassigned) [Example 86-b, 5-(3-Chloro-2,6-difluorophenyl)-2-(1^6-fluoro-2^4-((methoxycarbonyl)amino)-5-methyl-4-oxo-3-aza-1(1,3),2(1,2) -dibenzenacyclononaphane-9-yl)pyridine 1-oxide], the Ki was 782 nM.

As for `COC(=O)Nc1ccc2c(c1)NC(=O)CCCCC(c1ccc(-c3c(F)ccc(Cl)c3F)cn1)c1cc-2ncc1F` (stereo not drawn) [Example 58, methyl (9-(5-(3-chloro-2,6-difluorophenyl)pyridin-2-yl)-1^5-fluoro-4-oxo-3-aza-1(2,4)-pyridina-2(1,2)-benzenacyclononaphane-2^4-yl)carbamate], the Ki came out at 167 nM.

As to `COC(=O)Nc1ccc2c(c1)NC(=O)CCCCC(c1ccc(-c3c(F)ccc(Cl)c3F)cn1)c1ccc(F)c-2c1` (stereo not drawn) [Example 54, methyl (9-(5-(3-chloro-2,6-difluorophenyl)pyridin-2-yl)-1^6-fluoro-4-oxo-3-aza-1(1,3),2(1,2)-dibenzenacyclononaphane-2^4-yl)carbamate], the Ki was 839 nM.

`O=C1CCCCC(c2ccc(-c3c(F)ccc(Cl)c3F)cn2)c2cccc(c2)-c2cc3c(O)cc(=O)[nH]c3cc2N1` (stereo not drawn) [Example 49, 3-(5-(3-chloro-2,6-difluorophenyl)pyridin-2-yl)-1^4-hydroxy-1^1,1^2-dihydro-9-aza-1 (6,7)-quinolina-2(1,3)-benzenacyclononaphane-1^2,8-dione]: the Ki is 15.6 nM.

With `CCc1[nH]c2nc1-c1ccc(NC(=O)OC)cc1NC(=O)CCCC[C@@H]2c1ccc(-c2c(-n3cc(C(F)(F)F)cn3)ccc(Cl)c2F)c[n+]1[O-]` (single isomer, unassigned) [Example 136], the Ki came to 168 nM.

Regarding `COC(=O)Nc1ccc2c(c1)NC(=O)CCCCC(c1ccc(-c3c(F)ccc(Cl)c3F)c[n+]1[O-])c1cnn-2c1` (racemic) [Example 162, (Z)-5-(3-chloro-2,6-difluorophenyl)-2-(2^5-((methoxycarbonyl)amino)-4-oxo-1^1H-3-aza-1(1,4)-pyrazola-2(1,2)-benzenacyclononaphane-9-yl)pyridine 1-oxide], the Ki stood at 6.8 nM.

Regarding `COC(=O)Nc1ccc2c(c1)NC(=O)CCCCC(c1ccc(-c3c(F)ccc(Cl)c3F)cn1)c1ccc(F)c-2n1` (stereo not drawn) [Example 63, methyl (9-(5-(3-chloro-2,6-difluorophenyl)pyridin-2-yl)-1^3-fluoro-4-oxo-3-aza-1(2,6)-pyridina-2(1,2)-benzenacyclononaphane-2^4-yl)carbamate], the Ki is more than 875 nM.

`COC(=O)Nc1cc(F)c2c(c1)NC(=O)C(C)CCCC(c1ccc(-c3c(F)ccc(Cl)c3F)c[n+]1[O-])c1cccc-2c1` (single isomer, unassigned) [Example 85-a, 5-(3-Chloro-2,6-difluorophenyl)-2-(2^6-fluoro-2^4-((methoxycarbonyl)amino)-5-methyl-4-oxo-3-aza-1(1,3),2(1,2)-dibenzenacyclononaphane-9-yl)pyridine 1-oxide]: the Ki was more than 875 nM.

On to `COC(=O)Nc1ccc2c(c1)NC(=O)CCCCC(c1ccc(-c3c(F)ccc(Cl)c3F)cn1)c1cccc-2c1` (stereo not drawn) [Example 12, methyl (9-(5-(3-chloro-2,6-difluorophenyl)pyridin-2-yl)-4-oxo-3-aza-1(1,3),2(1,2)-dibenzenacyclononaphane-2^4-yl)carbamate], for which the Ki came out at 593 nM.

`COC(=O)Nc1ccc2c(c1)NC(=O)CCCC[C@H](c1ccc(-c3c(-n4cc(C(F)(F)F)cn4)ccc(Cl)c3F)c[n+]1[O-])c1nc-2c(C)[nH]1` (single isomer, unassigned) [Example 135]: the inhibition constant Ki was determined as 198 nM.

As to `CCOC(=O)Nc1ccc2c(c1)NC(=O)CCCC[C@H](c1ccc(-c3c(F)ccc(Cl)c3F)c[n+]1[O-])c1nc-2c(C)[nH]1` (single isomer, unassigned) [Example 134], the Ki came to 0.17 nM.

On to `COC(=O)Nc1ccc2c(c1)NC(=O)C[C@H]1C[C@@H]1C[C@H](c1ccc(-c3c(F)ccc(Cl)c3F)c[n+]1[O-])c1nc-2c(C)[nH]1` (single isomer, unassigned) [Example 154], for which the Ki amounted to 0.4 nM.

Take `Cn1ncc2c1-c1cccc(c1)C(c1ccc(-c3c(F)ccc(Cl)c3F)c[n+]1[O-])CCCCC(=O)N2` (stereo not drawn) [Example 164, 5-(3-chloro-2,6-difluorophenyl)-2-(1^1-methyl-8-oxo-1H-9-aza-1(5,4) -pyrazola-2(1,3)-benzenacyclononaphane-3-Yl)pyridine 1-oxide]: the Ki is more than 875 nM.

Consider `Cn1cc2c(n1)-c1cccc(c1)C(c1ccc(-c3c(F)ccc(Cl)c3F)c[n+]1[O-])CCCCC(=O)N2` (stereo not drawn) [Example 163, 5-(3-chloro-2,6-difluorophenyl)-2-(1^1-methyl-8-oxo-1^1H-9-aza-1(3,4) -pyrazola-2(1,3)-benzenacyclononaphane-3-Yl)pyridine 1-oxide], for which the Ki amounted to 22.6 nM.

Consider `COC(=O)Nc1ccc2c(c1)NC(=O)C[C@H]1C[C@@H]1C[C@H](c1ccc(-c3c(F)cccc3F)c[n+]1[O-])c1nc-2c(C)[nH]1` (single isomer, unassigned) [Example 155], for which the Ki came out at 11.4 nM.

`C[C@H]1CCC[C@@H](c2ccc(-c3cc(Cl)ccc3-n3cc(Cl)nn3)c[n+]2[O-])c2cccc(c2)-c2c(cnn2C(F)F)NC1=O` (single isomer, unassigned) [Example 166-d]: the Ki is more than 875 nM.

As to `COC(=O)Nc1ccc2c(c1)NC(=O)CCCCC(c1ccc(-c3c(F)ccc(Cl)c3F)c[n+]1[O-])c1ccc(F)c-2n1` (stereo not drawn) [Example 74, 5-(3-chloro-2,6-difluorophenyl)-2-(1^3-fluoro-2^4-((methoxycarbonyl)amino)-4-oxo-3-aza-1(2,6)-pyridina-2(1,2)-benzenacyclononaphane-9-yl)pyridine 1-oxide], the Ki was 180 nM.

As for `COC(=O)Nc1ccc2c(c1)NC(=O)CCCC[C@H](c1ccc(-c3c(F)ccc(Cl)c3F)c[n+]1[O-])c1cc(F)cc-2c1` (single isomer, unassigned) [Example 67], the Ki is 0.55 nM.

`O=C1CCCC[C@@H](c2ccc(-c3cc(Cl)ccc3-n3cnnn3)c[n+]2[O-])c2cccc(c2)-c2cc(F)ccc2N1` [Example 2-b, (R) 5-(5-chloro-2-(1H-tetrazol-1-yl)phenyl)-2-(2^5-fluoro-4-oxo-3-aza-1(1,3),2(1,2)-dibenzenacyclononaphane-9-yl)pyridine 1-oxide]: the Ki stood at 83.1 nM.

As for `O=C1CCCCC(c2ccc(-c3c(-n4cc(C(=O)O)nn4)ccc(Cl)c3F)cn2)c2cc(ncc2F)-c2cc(F)ccc2N1` (single isomer, unassigned) [Example 91-a], the Ki is 11 nM.

In the case of `COC(=O)Nc1ccc2c(c1)NC(=O)CCCCC(c1ccc(-c3c(-n4cc(C(F)(F)F)cn4)ccc(Cl)c3F)c[n+]1[O-])c1nc-2c[nH]1` (stereo not drawn) [Example 116], the Ki was 208 nM.

For `O=C1CCCCC(c2ccc(-c3cc(Cl)ccc3-n3cnnn3)cn2)c2nc(c[nH]2)-c2cc(F)ccc2N1` (single isomer, unassigned) [Example 10-a, (Z)-9-(5-(5-chloro-2-(1H-tetrazol-1-yl)phenyl)pyridin-2-yl)-2^5-fluoro-1^1H -3-aza-1(4,2)-imidazola-2(1,2)-benzenacyclononaphan-4-one], the Ki is 83.8 nM.

Take `COC(=O)Nc1ccc2c(c1)NC(=O)CCCCC(c1ccc(-c3c(F)ccc(Cl)c3F)cn1)c1cc(F)cc-2c1` (stereo not drawn) [Example 53, methyl (9-(5-(3-chloro-2,6-difluorophenyl)pyridin-2-yl)-1^5-fluoro-4-oxo-3-aza-1(1,3),2(1,2)-dibenzenacyclononaphane-2^4-yl)carbamate]: the Ki was more than 875 nM.

As for `O=C1CCCC[C@H](c2ccc(-c3c(F)ccc(Cl)c3F)c[n+]2[O-])c2cccc(c2)-c2ccc(NC(=O)OCCO)cc2N1` [Example 46, (S)-5-(3-chloro-2,6-difluorophenyl)-2-(2^4-(((2-hydroxyethoxy)carbonyl)amino)-4-oxo-3-aza-1(1,3),2(1,2) -dinenzenacyclononaphane-9-yl)pyridine 1-oxide], the Ki was determined as 0.24 nM.

For `O=C1CCCC[C@H](c2ccc(-c3c(F)ccc(Cl)c3F)c[n+]2[O-])c2cccc(c2)-c2c(cnn2C(F)F)N1` (single isomer, unassigned) [Example 171], the Ki was more than 875 nM.

As to `COC(=O)Nc1ccc2c(c1)NC(=O)CCCCC(c1ccc(-c3c(F)ccc(Cl)c3F)cn1)c1cc-2ccn1` (stereo not drawn) [Example 62, methyl (9-(5-(3-chloro-2,6-difluorophenyl)pyridin-2-yl)-4-oxo-3-aza-1(4,2)-pyridina-2(1,2)-benzenacyclononaphane-2^4-yl)carbamate], the Ki is 33 nM.
